B1: cleaved fatty aldehyde reducatase enzyme: fatty aldehyde reductase of SEQ ID NO: 2 freed from MBP by Factor Xa cleavage (protein)
chain: MAIQQVHHADTSSSKVLGQLRGKRVLITGTTGFLGKVVLERLIRAVPDIGAIYLLIRGNKRHPDARSRFLEEIATSSVFDRLREADSEGFDAFLEERIHCVTGEVTEAGFGIGQEDYRKLATELDAVINSAASVNFREELDKALAINTLCLRNIAGMVDLNPKLAVLQVSTCYVNGMNSGQVTESVIKPAGEAVPRSPDGFYEIEELVRLLQDKIEDVQARYSGKVLERKLVDLGIREANRYGWSDTYTFTKWLGEQLLMKALNGRTLTILRPSIIESALEEPAPGWIEGVKVADAIILAYAREKVTLFPGKRSGIIDVIPVDLVANSIILSLAEALGEPGRRRIYQCCSGGGNPISLGEFIDHLMAESKANYAAYDHLFYRQPSKPFLAVNRALFDLVISGVRLPLSLTDRVLKLLGNSRDLKMLRNLDTTQSLATIFGFYTAPDYIFRNDELMALANRMGEVDKGLFPVDARLIDWELYLRKIHLAGLNRYALKERKVYSLKTARQRKKAA
modifications: Marinobacter aquaeolei VT8

Experiments:
[1] = tested on: MBP-FALDR enzyme (maltose binding protein-fatty aldehyde reductase fusion protein); assay: Continuous spectrophotometric assay of fatty aldehyde reductase activity (NADPH oxidation at 340 nm), substrate comparison and kinetics; type: biochemical, Marinobacter aquaeolei VT8
Procedure: For Fatty Aldehyde Continuous Spectrophotometric Assay Development, all assays were performed in a sealed quartz cuvette with a 1 cm path length. The cuvette and solutions were first degassed with argon on a manifold to remove oxygen from the headspace and solutions. Substrates were initially disbursed into a buffer solution containing BSA at a concentration of 0.5 mg/mL by sonication for three ten second intervals using a microtip sonicator (Branson, Danbury, Conn.). The initial assay for pH optimization included a buffer of 100 mM MOPS, 100 mM MES, and 100 mM TAPS. For reduction assays, 75 μL of a 2 mg/mL NADPH stock was added to bring the initial concentration of NADPH in the cuvette to approximately 200 μM, and an approximate absorbance at 340 nm of 1.2 based on the reported extinction coefficient of 6220 M^−1 cm^−1 for NADPH. In all assays, the reaction was run for at least two minutes with the NADPH and substrate present, prior to the addition of any enzyme, to obtain a background oxidation rate of the NADPH. […] A linear fit of the data was then used to establish the rate, and the initial background rate was subtracted, to determine the rate associated with substrate reduction by the MBP-FALDR enzyme.
Having established that the MBP-FALDR would utilize NADPH as a substrate, it was possible to employ a continuous spectrophotometric assay to monitor substrate reduction rates based on the loss of absorbance at 340 nm when NADPH is oxidized to NADP^+. Using this assay, it was possible to establish the pH dependence of the reduction reaction. The rate of reaction was highest at pH 6.3, with a steep increase in activity going from 8.0 to 6.3. The rate at 6.3 was only slightly greater than at 6.5 ([…]). Several factors had to be considered in establishing the optimal pH of the assay. The first was the background oxidation of the NADPH without any MBP-FALDR enzyme present. […] The assays were run under an argon atmosphere to minimize oxidation of the NADPH by O2. A further consideration was the rapid degradation that occurs at the lowest pH values. […] So, for standard assays used here, a pH of 6.5 was selected, where the activity was minimally affected by slight variations in pH. The following discussion is useful in understanding some features and benefits of the various embodiments of the invention:
Utilizing the continuous assay to monitor MBP-FALDR activity, the dependence of rate on substrate concentration was determined for all of the commercially available substrates described above. Each assay was repeated multiple times to confirm the results from each single determination. The results obtained for cis-11-hexadecenal are shown in FIG. 2 and are representative of the results obtained for repeated determinations and for the other substrates. […] In addition, several factors could limit the observed activity. All of the substrates tested have limited solubility in aqueous solutions, and must first be suspended in solution via sonication. Even under these conditions, it is likely that the substrates exist inside micelles. The sonication process utilized here could result in the partial degradation of the substrate over time. Additionally, the suspension of the substrate in solution is only temporary, and the substrate slowly separates from aqueous solution. Due to these limitations, the measured activity is likely to be an underestimate of the actual activity. In the cell, the enzyme and substrate are likely associated with the hydrophobic membranes. […] It was also observed that the MBP-FALDR enzyme was unstable over time, even when stored at 4° C., losing as much as 50% of the activity over a period of a week. Though the purification is quite rapid, it is uncertain how much activity is lost during preparation. […]

[2] = tested on: MBP-FALDR enzyme; assay: Initial assessment of activity: overnight reaction with NADPH/NADH or NADP+, GC/GC-MS analysis; type: biochemical, Marinobacter aquaeolei VT8
Procedure: For initial assessment of the activity of the purified MBP-FALDR enzyme, 50 μg of purified MBP-FALDR protein was added to a reaction mixture containing 100 mM of Tris buffer at pH 7.9, 100 mM NaCl, 2.4 mM of either NADPH or NADH as a reductant, and decanal, oleic acid, and hexadecanol as possible substrates. The assays were run under an argon atmosphere in septa sealed vials overnight at room temperature with constant gentle mixing. The products of the reactions were then extracted from the buffer by adding an equal volume of hexane and organic layer components were analyzed by gas chromatography equipped with a flame ionization detector (Forte HT5 column (SGE Analytical Science, Austin, Tex.), 30 meter by 0.32 mm inner diameter with 0.5 μm film thickness, with argon as a carrier and a temperature ramp from 60° C. to 360° C. increasing at 10° C. per minute). Samples containing new peaks not present in a control sample were also run through a gas chromatograph equipped with a mass spectrometer (Shimadzu GC-2010 and GCMS-QP2010S) to assign the identity of the product.
Preliminary experiments were run with the MBP-FALDR enzyme to probe possible substrates by mixing either NADH or NADPH with an aldehyde (decanal), alcohol (hexadecanol) or fatty acid (oleic acid) and then looking for changes in concentration of one or more of the potential substrates by GC analysis. The assays were allowed to run overnight in a sealed vial under an atmosphere of argon to maintain the reduced forms of the nicotinamide coenzymes. […] This initial result pointed to the likelihood that the MBP-FALDR enzyme is an NADPH-dependent fatty aldehyde reductase, and further experiments were run to characterize this activity. […] The activity of medium chain alcohol dehydrogenases from a broad range of species show rates of oxidation of alcohols that are 10% of the rates of the reduction of the corresponding aldehyde, so it is possible that this rate is too low to detect.

[3] = tested on: MBP-FALDR enzyme; assay: Reversibility and cofactor test, spectrophotometric at 340 nm (NADP+, NADH, NAD+); type: biochemical, Marinobacter aquaeolei VT8; details: NADH with decanal, NAD+ with decanol, in place of NADPH/NADP+
From the text: When the assay was used to check for activity with NADH in place of NADPH, NADH was substituted for NADPH at the same concentration as was used for NADPH, and the assay run as described above. Reactions using either NADP^+ or NAD^+ also used the same concentration, but it followed the increase in absorbance monitored at 340 nm. Once the pH optimum was established for the enzyme, TAPS and MOPS were removed from the buffer, and only MES was used.
To test the possible reversibility of the fatty aldehyde reducatase enzyme comprising the amino acid sequence of SEQ ID NO: 2, the oxidation of a number of alcohols to the corresponding aldehyde using NADP^+ as the oxidant were tested. These tests were performed with the MBP-FALDR enzyme. In these assays, the increase in absorbance at 340 nm was followed. Under no conditions did any reduction of NADP^+ occur in the presence of the fatty alcohols tested. As a control, the alcohol dehydrogenase from Thermoanaerobium brokii was followed with 2-propanol and the same stock of NADP^+ to confirm the integrity of the assay.

[4] = tested on: MBP-FALDR fusion protein; assay: Inhibition of decanal reduction by MBP-FALDR in the presence of NADPH; type: biochemical, Marinobacter aquaeolei VT8; details: at the two concentrations tested
Procedure: For Fatty Aldehyde Continuous Spectrophotometric Assay Development, all assays were performed in a sealed quartz cuvette with a 1 cm path length. The cuvette and solutions were first degassed with argon on a manifold to remove oxygen from the headspace and solutions. Substrates were initially disbursed into a buffer solution containing BSA at a concentration of 0.5 mg/mL by sonication for three ten second intervals using a microtip sonicator (Branson, Danbury, Conn.). The initial assay for pH optimization included a buffer of 100 mM MOPS, 100 mM MES, and 100 mM TAPS. For reduction assays, 75 μL of a 2 mg/mL NADPH stock was added to bring the initial concentration of NADPH in the cuvette to approximately 200 μM, and an approximate absorbance at 340 nm of 1.2 based on the reported extinction coefficient of 6220 M^−1 cm^−1 for NADPH. In all assays, the reaction was run for at least two minutes with the NADPH and substrate present, prior to the addition of any enzyme, to obtain a background oxidation rate of the NADPH.
Finally, the ability of decanol to inhibit reduction of decanal was also tested.
Referring again to Table 2, the inhibition assays were run in 100 mM MES buffer pH 6.5 with 200 μM NADPH, 250 μM decanal and 125 μg of MBP-FALDR fusion protein. All compounds were dissolved in buffer except dipyridyl, which was dissolved in dimethyl sulfoxide (DMSO).

[5] = Decanal reduction after Factor Xa removal of maltose binding protein; type: biochemical; details: MBP removed by Factor Xa cleavage
Procedure: Since all the assays were conducted with the MBP-FALDR fusion protein, a principle concern was whether the fusion protein accurately represented the activity of the wild-type fatty aldehyde reducatase enzyme comprising the amino acid sequence of SEQ ID NO: 2. To examine whether the maltose binding protein affected the activity of the wild-type fatty aldehyde reducatase enzyme comprising the amino acid sequence of SEQ ID NO: 2, the maltose binding protein was removed from the N-terminus of the fatty aldehyde reducatase enzyme comprising the amino acid sequence of SEQ ID NO: 2 by Factor Xa cleavage. The near complete cleavage of maltose binding protein was verified by SDS-PAGE. This cleavage is facilitated by the incorporation of a factor Xa cleavage site (Ile-Glu-Gly-Arg) just upstream of the EcoRI site of the pMAL-c2x vector.

| Molecule | substrate activity in words ([1]; compared with decanal, substrate 100 μg/mL) | activity (substrate reduction rate) ([1]; substrate 100 μg/mL, 160 μg enzyme) | Relative Activity (Percent of Decanal) ([1]; substrate 100 μg/mL, 160 μg enzyme, decanal = 85 nmols/min/mg = 100) | Km ([1]; substrate of MBP-FALDR, Michaelis-Menten fit, NADPH, FIG. 2 substrate is cis-11-hexadecenal) | substrate conversion by GC ([2]; with NADPH, overnight, argon, room temperature, new peak confirmed as decanol by MS) | activity over background with NADH or NAD+ [3] | inhibition of decanal reduction [4] | reverse reaction: aldehyde production by GC ([2]; with NADP+) | rate of substrate reduction versus MBP-FALDR fusion protein [5] |
| --- | --- | --- | --- | --- | --- | --- | --- | --- | --- |
| CCCCCCCCCC=O [Decanal] | highest activity of the substrates tested | 85 nmol/min/mg | 100% of Decanal | ~100 µM | decrease in the decanal peak | no indication of activity over background | – | – | – |
| CCCCCCCCCCO [decanol] | – | – | – | – | – | no indication of activity over background | ~45% | no detectable levels | – |
| B1 | – | – | – | – | – | – | – | – | did not reveal any loss or improvement |
